{
  "source": "patent US10456377B2",
  "about": "“Anesthetic comprising tetracaine and a vasoconstrictor for administration to a subject” (St. Renatus, LLC, priority 2009, dated 2019)",
  "test_system": "maxillary dentition",
  "experiment": "Intranasal tetracaine HCl solution, anesthesia of the maxillary dentition by electric pulp testing (EPT)",
  "type": "in vivo, human",
  "details": "nasal spray, tetracaine doses between 4 and 16 mg, 80 subjects",
  "experimental": "The purpose of this study was to identify an effective and safe dosage of an intranasally administered tetracaine hydrochloride solution for obtaining anesthesia of the maxillary dentition. Healthy human volunteers were administered a dose of tetracaine HCl delivered as a nasal spray using a BD Accuspray™ device. The administration of the local anesthetic varied by total dose, concentration, and volume, and it included single doses in a single nostril, split doses in the same nostril, and divided doses in both nostrils. Different techniques regarding direction of spray were also investigated.\nThe efficacy of tetracaine hydrochloride in 80 subjects was measured by monitoring pain levels via electric pulp testing (EPT). EPT testing was accomplished by passing a current through the tooth to be tested wherein the lowest level of current is a “0” and the highest level of current is an “80.” Subjects are exposed to an increasing amount of current (starting at 0 and ramping up to 80). If any pain was felt by the subject, the test was stopped and the EPT reading was recorded.\nSubjects received tetracaine doses between 4 and 16 mg.",
  "note": "Counter-ions that a name gives are not always drawn.",
  "data": [
    {"compound": "CCCCNc1ccc(C(=O)OCCN(C)C)cc1", "note": "[tetracaine HCl, 2-(dimethylamino)ethyl 4-(butylamino)benzoate]", "values": [
      {"measurement": "maxillary arch anesthesia, as indicated by an EPT score of 80", "value": "did not result in maxillary arch anesthesia"}
    ]}
  ]
}
